Legend:
[1] = target: Tyrosine-protein kinase Lck (Homo sapiens, UniProt P06239); assay: Inhibition of LCK (unknown origin)
[2] = target: Mitogen-activated protein kinase 1 (Homo sapiens, UniProt P28482); assay: Inhibition of ERK2 (unknown origin)
[3] = target: Serine/threonine-protein kinase PLK3 (Homo sapiens, UniProt Q9H4B4); assay: Inhibition of PLK3 (unknown origin)
Aurora kinase B = Aurora kinase B (Homo sapiens, UniProt Q96GD4); assay: Inhibition of Aurora B (unknown origin) using Tamra-PKAtide as substrate by fluorescence polarization assay
Sequence of Aurora kinase B (Q96GD4 whole entry): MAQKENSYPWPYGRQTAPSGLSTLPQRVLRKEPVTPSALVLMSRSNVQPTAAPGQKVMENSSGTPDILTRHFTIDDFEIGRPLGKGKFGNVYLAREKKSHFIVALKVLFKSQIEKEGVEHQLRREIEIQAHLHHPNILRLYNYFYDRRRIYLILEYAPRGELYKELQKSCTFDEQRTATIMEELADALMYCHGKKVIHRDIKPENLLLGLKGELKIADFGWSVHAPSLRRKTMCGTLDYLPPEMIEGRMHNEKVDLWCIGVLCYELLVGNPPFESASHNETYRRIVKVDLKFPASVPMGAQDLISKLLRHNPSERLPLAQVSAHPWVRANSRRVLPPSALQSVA

[4] = target: Protein kinase C alpha type (Homo sapiens, UniProt P17252); assay: Inhibition of PKCA (unknown origin)
[5] = target: T1, Serine/threonine-protein kinase Chk1 (Homo sapiens, UniProt O14757); assay: Inhibition of CHK1 (unknown origin)
T1 sequence (O14757 whole entry): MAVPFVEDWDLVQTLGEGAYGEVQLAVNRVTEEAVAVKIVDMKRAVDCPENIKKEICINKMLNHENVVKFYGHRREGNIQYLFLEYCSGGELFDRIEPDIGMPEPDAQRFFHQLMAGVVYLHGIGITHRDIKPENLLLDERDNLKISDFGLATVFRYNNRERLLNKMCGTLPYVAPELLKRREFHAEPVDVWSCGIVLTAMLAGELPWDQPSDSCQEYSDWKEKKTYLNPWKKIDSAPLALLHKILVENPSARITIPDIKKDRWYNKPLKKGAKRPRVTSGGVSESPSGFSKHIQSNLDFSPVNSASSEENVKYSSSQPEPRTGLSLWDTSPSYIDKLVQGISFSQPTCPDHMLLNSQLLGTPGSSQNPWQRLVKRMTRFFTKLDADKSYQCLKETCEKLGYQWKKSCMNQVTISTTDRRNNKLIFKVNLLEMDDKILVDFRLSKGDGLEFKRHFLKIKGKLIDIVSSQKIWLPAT

[6] = target: Insulin-like growth factor 1 receptor (Homo sapiens, UniProt P08069); assay: Inhibition of IGF1R (unknown origin)
Sequence of Insulin-like growth factor 1 receptor (P08069 31-736 limits assumed): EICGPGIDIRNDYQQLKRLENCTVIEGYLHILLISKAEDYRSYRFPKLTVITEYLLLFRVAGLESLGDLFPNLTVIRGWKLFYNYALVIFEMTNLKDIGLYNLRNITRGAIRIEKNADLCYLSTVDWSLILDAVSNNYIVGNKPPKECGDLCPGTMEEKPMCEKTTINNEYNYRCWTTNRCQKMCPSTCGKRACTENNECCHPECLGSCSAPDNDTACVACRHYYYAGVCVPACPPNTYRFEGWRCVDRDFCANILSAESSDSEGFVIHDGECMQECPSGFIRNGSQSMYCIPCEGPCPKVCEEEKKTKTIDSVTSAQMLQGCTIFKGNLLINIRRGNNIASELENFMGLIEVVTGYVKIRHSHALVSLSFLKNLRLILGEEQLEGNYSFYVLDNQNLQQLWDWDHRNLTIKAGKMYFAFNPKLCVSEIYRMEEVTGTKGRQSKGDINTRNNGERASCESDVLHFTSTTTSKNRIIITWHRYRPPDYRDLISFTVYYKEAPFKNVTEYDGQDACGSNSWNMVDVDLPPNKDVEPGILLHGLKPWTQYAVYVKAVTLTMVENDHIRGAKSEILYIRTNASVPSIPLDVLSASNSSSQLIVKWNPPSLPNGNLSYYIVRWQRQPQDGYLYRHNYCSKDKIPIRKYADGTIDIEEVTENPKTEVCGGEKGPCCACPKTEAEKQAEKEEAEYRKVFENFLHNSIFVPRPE
Sequence of Insulin-like growth factor 1 receptor (P08069 741-1367 limits assumed): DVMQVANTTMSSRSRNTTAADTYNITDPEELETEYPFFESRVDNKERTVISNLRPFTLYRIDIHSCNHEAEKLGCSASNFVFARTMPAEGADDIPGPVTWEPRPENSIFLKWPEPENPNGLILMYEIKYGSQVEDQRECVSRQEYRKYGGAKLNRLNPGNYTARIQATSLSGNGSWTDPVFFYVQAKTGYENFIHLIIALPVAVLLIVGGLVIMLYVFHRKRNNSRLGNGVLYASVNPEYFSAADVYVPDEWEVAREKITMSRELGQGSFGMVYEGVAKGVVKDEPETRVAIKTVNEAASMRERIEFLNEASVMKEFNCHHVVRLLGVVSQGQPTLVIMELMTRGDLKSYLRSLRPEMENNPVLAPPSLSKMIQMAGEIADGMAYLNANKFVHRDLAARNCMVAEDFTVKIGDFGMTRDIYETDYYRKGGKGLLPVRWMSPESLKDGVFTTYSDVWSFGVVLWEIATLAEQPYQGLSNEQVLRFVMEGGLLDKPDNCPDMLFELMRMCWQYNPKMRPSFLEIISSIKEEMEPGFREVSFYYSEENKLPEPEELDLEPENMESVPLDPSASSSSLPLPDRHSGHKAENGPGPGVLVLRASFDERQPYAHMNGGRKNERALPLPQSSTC

[7] = target: Cyclin-dependent kinase 2 (Homo sapiens, UniProt P24941); assay: Inhibition of CDK2 (unknown origin)
[8] = target: T2, Receptor-type tyrosine-protein kinase FLT3 (Homo sapiens, UniProt P36888); assay: Inhibition of FLT3 (unknown origin)
T2 sequence (P36888 whole entry): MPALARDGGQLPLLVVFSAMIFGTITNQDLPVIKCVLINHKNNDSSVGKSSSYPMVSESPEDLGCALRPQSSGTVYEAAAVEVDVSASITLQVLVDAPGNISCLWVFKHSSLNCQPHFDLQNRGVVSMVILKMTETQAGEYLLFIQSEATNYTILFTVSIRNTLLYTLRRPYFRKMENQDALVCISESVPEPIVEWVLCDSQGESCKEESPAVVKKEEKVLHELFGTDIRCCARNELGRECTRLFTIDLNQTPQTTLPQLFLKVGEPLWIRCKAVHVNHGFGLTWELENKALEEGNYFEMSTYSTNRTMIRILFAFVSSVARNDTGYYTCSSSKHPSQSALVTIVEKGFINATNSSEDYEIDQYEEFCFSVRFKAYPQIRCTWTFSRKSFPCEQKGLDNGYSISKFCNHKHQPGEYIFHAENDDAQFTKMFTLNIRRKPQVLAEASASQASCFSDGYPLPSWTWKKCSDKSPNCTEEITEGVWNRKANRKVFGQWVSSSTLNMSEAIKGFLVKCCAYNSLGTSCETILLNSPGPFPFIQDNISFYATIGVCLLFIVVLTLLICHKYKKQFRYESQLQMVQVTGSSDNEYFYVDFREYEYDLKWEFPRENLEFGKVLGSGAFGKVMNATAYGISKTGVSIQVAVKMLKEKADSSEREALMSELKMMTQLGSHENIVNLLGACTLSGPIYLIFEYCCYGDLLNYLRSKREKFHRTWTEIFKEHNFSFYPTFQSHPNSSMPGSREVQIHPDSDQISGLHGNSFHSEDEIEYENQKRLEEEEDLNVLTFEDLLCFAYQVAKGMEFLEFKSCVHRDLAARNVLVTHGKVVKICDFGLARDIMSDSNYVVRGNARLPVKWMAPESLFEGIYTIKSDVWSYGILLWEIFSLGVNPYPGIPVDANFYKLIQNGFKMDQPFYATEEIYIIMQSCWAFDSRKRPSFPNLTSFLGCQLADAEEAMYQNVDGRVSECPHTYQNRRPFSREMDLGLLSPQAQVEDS

[9] = Apparent permeability from apical to basolateral side in human intestinal Caco2 cells; type: ADME, cell-based; settings: Caco-2
[10] = target: T3, Inhibitor of nuclear factor kappa-B kinase subunit beta (Homo sapiens, UniProt O14920); assay: Inhibition of IKKB (unknown origin)
T3 sequence (O14920 whole entry): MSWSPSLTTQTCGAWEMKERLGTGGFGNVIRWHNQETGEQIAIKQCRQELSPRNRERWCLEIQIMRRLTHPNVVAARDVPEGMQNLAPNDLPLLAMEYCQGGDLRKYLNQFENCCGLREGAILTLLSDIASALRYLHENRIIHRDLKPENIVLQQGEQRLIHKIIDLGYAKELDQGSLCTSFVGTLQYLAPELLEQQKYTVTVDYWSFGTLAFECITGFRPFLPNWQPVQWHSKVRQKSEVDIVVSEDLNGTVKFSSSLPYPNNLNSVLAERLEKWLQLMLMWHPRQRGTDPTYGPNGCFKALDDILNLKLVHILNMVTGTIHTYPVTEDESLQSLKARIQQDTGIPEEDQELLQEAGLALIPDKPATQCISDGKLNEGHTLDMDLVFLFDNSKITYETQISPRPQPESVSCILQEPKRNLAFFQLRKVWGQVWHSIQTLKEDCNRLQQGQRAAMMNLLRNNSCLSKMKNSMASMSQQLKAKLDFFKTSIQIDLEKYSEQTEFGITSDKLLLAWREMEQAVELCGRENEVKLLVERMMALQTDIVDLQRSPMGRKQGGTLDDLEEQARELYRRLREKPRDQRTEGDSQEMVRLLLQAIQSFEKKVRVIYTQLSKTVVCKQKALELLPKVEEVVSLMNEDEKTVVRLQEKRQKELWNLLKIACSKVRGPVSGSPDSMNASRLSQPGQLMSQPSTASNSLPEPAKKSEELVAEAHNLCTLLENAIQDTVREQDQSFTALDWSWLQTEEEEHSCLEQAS

[11] = target: Glycogen synthase kinase-3 beta (Homo sapiens, UniProt P49841); assay: Inhibition of GSK3b (unknown origin)
Sequence of Glycogen synthase kinase-3 beta (P49841 whole entry): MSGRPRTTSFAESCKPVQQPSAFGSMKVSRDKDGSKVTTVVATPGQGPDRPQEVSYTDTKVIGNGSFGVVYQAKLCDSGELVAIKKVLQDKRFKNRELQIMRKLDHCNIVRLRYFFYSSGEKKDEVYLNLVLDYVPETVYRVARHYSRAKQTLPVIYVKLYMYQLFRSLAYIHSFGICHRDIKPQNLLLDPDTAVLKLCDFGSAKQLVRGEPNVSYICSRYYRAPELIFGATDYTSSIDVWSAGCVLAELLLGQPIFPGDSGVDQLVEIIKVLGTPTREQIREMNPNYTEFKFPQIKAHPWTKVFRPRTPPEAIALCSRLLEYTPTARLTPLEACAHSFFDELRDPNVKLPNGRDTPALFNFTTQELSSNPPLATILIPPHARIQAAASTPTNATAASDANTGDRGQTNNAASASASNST

Sequence of Mitogen-activated protein kinase 1 (P28482 whole entry): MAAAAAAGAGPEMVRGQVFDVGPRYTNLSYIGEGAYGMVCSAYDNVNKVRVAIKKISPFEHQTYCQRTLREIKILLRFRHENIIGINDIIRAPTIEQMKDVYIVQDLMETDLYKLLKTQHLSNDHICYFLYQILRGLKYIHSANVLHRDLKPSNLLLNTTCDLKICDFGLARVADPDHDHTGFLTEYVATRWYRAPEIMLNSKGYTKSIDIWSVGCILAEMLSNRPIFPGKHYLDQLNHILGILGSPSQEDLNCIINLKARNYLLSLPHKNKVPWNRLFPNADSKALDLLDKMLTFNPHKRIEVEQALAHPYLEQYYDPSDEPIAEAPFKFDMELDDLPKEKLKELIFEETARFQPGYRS
Sequence of Serine/threonine-protein kinase PLK3 (Q9H4B4 whole entry): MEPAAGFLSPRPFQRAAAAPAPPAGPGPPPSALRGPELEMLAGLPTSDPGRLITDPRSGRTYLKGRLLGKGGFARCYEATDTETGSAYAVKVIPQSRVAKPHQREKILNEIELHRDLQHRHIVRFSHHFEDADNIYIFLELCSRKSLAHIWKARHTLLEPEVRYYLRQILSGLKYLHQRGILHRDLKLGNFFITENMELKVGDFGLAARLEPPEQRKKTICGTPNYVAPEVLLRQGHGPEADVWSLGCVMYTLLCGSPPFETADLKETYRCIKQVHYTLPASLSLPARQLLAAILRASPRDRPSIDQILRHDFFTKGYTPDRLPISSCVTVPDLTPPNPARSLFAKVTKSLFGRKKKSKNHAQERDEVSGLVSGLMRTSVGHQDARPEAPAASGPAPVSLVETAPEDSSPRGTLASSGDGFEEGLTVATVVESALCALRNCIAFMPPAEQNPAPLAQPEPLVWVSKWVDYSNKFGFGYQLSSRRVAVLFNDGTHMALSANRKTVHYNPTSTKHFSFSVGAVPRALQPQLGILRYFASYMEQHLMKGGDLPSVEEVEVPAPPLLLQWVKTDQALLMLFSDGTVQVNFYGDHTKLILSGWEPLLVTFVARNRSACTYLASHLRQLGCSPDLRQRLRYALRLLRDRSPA
Sequence of Tyrosine-protein kinase Lck (P06239 whole entry): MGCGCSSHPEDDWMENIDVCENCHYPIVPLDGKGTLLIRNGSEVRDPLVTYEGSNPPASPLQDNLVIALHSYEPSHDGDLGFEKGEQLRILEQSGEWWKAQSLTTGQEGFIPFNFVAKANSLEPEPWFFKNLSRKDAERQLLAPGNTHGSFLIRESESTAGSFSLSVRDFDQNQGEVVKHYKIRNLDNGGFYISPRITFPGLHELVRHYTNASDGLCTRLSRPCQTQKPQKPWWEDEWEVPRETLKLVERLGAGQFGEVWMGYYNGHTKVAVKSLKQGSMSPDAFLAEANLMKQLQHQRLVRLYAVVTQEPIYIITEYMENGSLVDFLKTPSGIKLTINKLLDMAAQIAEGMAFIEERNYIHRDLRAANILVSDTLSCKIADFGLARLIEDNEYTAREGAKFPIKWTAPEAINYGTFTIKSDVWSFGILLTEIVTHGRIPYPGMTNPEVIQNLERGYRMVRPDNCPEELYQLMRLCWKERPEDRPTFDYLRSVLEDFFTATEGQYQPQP

Row | SMILES | IC50 [1] | IC50 [2] | IC50 [3] | IC50 (Aurora kinase B) | IC50 [4] | IC50 [5] | IC50 [6] | IC50 [7] | IC50 [8] | Papp A→B [9] | IC50 [10] | IC50 [11]
1 | Cc1cn2c(-c3cn[nH]c3)cnc2c(Nc2cc(Cc3ccccn3)ns2)n1 | 271 nM | > 500 nM | > 500 nM | < 13 nM | > 500 nM | 360 nM | > 500 nM | > 500 nM | 14 nM | 2.8 ×10⁻⁶ cm/s | > 500 nM | > 500 nM
2 | CCN(CCO)Cc1cc(Nc2nc(C)cn3c(-c4cn[nH]c4)cnc23)sn1 | < 1 nM | > 500 nM | > 500 nM | < 13 nM | > 500 nM | 13 nM | > 500 nM | > 500 nM | 5 nM | 2.1 ×10⁻⁶ cm/s | > 500 nM | > 500 nM
3 | Cc1cn2c(-c3cn[nH]c3)cnc2c(Nc2cc(C(NC(C)(C)C)c3ccccn3)ns2)n1 (single isomer, unassigned; (+)) | 61 nM | > 1000 nM | > 1000 nM | ≤ 13 nM | > 1000 nM | 7 nM | > 1000 nM | > 1000 nM | 5 nM | 2.4 ×10⁻⁶ cm/s | > 1000 nM | > 1000 nM

From ChEMBL document CHEMBL4219148, “Discovery of a highly potent orally bioavailable imidazo-[1, 2-a]pyrazine Aurora inhibitor” (Bioorg Med Chem Lett, 2018)
